# Results reported in patent EP0947515A1, “NOVEL NAPHTHYRIDINE DERIVATIVES” (SUMITOMO PHARMACEUTICALS COMPANY, LIMITED, priority 1996, dated 1998).
# Assays:
# ACAT [1] = target: T1, ACAT (Rattus norvegicus, UniProt O70536); assay: Assay of ACAT inhibitory activity in the macrophage derived from rat peritoneal; format: cell-based; conditions: 10^-7 M, radioactive oleic acid and exogenous cholesterol in liposome, read-out: ACAT inhibitory rate (%) 10^-7 M
# T1 construct: The rat peritoneal-derived macrophage was prepared; endogenous in cells; host or cells: rat peritoneal macrophages (primary)
# T1 sequence (O70536 1-545): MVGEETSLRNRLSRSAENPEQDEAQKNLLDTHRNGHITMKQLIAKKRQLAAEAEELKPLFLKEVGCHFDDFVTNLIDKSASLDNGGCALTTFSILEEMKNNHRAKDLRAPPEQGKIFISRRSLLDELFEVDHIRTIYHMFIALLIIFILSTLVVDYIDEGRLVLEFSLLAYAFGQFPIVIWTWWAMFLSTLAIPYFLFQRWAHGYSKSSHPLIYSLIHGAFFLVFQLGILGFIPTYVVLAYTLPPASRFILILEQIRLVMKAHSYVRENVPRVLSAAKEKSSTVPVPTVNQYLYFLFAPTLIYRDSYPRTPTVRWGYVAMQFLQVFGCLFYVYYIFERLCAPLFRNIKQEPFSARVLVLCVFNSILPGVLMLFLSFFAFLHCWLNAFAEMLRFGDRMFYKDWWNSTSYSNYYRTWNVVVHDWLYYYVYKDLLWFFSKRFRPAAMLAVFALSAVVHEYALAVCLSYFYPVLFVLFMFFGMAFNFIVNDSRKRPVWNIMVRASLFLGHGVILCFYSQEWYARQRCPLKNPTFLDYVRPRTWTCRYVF
# Description: 2. Assay of ACAT inhibitory activity in the macrophage derived from rat peritoneal
# The rat peritoneal-derived macrophage was prepared according to the method disclosed in the literature: Biochimica et Biophysica Acta, 1126, 73-80, 1992. The ACAT activity was determined by a modified method of the method disclosed in the above literature: Biochimica et Biophysica Acta, 1126, 73-80, 1992, i.e., using radioactive [9, 10-H]oleic acid and exogenous cholesterol contained in the liposome which was reconstituted according to the method disclosed in the literature: Biochimica et Biophysica Acta, 1213, 127-134, 1994, and calculated from the radioactivity of the labeled cholesterolyl oleate.
# ACAT [2] = assay: Assay of ACAT inhibitory activity in a specimen prepared from rabbit liver; format: biochemical, New Zealand white rabbit; conditions: enzyme specimen from liver of cholesterol-fed rabbit, [1-14C]oleoyl-CoA and endogenous cholesterol, 0.1 µM
# Description: 1. Assay of ACAT inhibitory activity in a specimen prepared from rabbit liver
# An enzyme specimen ACAT was prepared according to the method disclosed in the literature: J. Lipid. Research, 30, 681-690, 1989, from the liver of New Zealand white rabbit, which had been fed with 1 % cholesterol feed for one month. The ACAT activity was determined according to the method disclosed in the literature: J. Lipid Research, 24, 1127-1134, 1983, i.e., using radioactive [1-14C]oleoyl-CoA and endogenous cholesterol contained in the liver microsome, and calculated from the radioactivity of the labeled cholesterol oleate.
structure (smiles),measurement,setting,value
"CCCCn1c(=O)c(NC(=O)Nc2c(C(C)C)cccc2C(C)C)c(-c2cccc(C#CCN3CCCC3)c2)c2cccnc21 [Example 90, N-[1-butyl-4-[3-{3-(1-pyrrolidinyl)-1-propynyl)phenyl}-1,2-dihydro-2-oxo-1,8-naphthyridin-3-yl)-N'-(2,6-diisopropylphenyl)urea]",inhibition at 0.1 µM,ACAT [1],96%
same,ACAT inhibitory rate (%) 10^-7 M,ACAT [2],39%
